Reference: PubChem BioAssay (NCI)
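The compound was tested at five concentrations on cells cultured in 96-well plates, with a 48-hour exposure period. The concentration for 50% growth inhibition is given as GI50. TGI: concentration producing complete growth inhibition.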

Legend:
Assay in all cases: NCI anticancer screen, dose series, 48 h
NCI-H23 lung = system: NCI-H23 lung
OVCAR-4 ovarian = system: OVCAR-4 ovarian
SN12C renal = system: SN12C renal
NCI-H460 lung = system: NCI-H460 lung
OVCAR-3 ovarian = system: OVCAR-3 ovarian
SF-295 CNS = system: SF-295 CNS
HCT-15 colon = system: HCT-15 colon
UACC-257 melanoma = system: UACC-257 melanoma
CAKI-1 renal = system: CAKI-1 renal
786-0 renal = system: 786-0 renal
RPMI-8226 leukemia = system: RPMI-8226 leukemia
HT29 colon = system: HT29 colon
SR leukemia = system: SR leukemia
ACHN renal = system: ACHN renal
SNB-75 CNS = system: SNB-75 CNS
UO-31 renal = system: UO-31 renal
OVCAR-5 ovarian = system: OVCAR-5 ovarian
K-562 leukemia = system: K-562 leukemia
HCC-2998 colon = system: HCC-2998 colon
KM12 colon = system: KM12 colon
COLO 205 colon = system: COLO 205 colon
PC-3 prostate = system: PC-3 prostate
MDA-MB-435 = system: MDA-MB-435
EKVX NSCLC = system: EKVX NSCLC
HOP-92 NSCLC = system: HOP-92 NSCLC
M14 melanoma = system: M14 melanoma
SNB-19 CNS = system: SNB-19 CNS
A549 NSCLC = system: A549 NSCLC
RXF 393 renal = system: RXF 393 renal
SK-OV-3 ovarian = system: SK-OV-3 ovarian
SK-MEL-2 melanoma = system: SK-MEL-2 melanoma
MALME-3M melanoma = system: MALME-3M melanoma
NCI-H522 lung = system: NCI-H522 lung
SF-539 CNS = system: SF-539 CNS
SK-MEL-28 melanoma = system: SK-MEL-28 melanoma
NCI/ADR-RES ovarian = system: NCI/ADR-RES ovarian
SK-MEL-5 melanoma = system: SK-MEL-5 melanoma
IGROV1 ovarian = system: IGROV1 ovarian
A498 renal = system: A498 renal
NCI-H226 lung = system: NCI-H226 lung
UACC-62 melanoma = system: UACC-62 melanoma
HS 578T breast = system: HS 578T breast
LOX IMVI melanoma = system: LOX IMVI melanoma
CCRF-CEM leukemia = system: CCRF-CEM leukemia
OVCAR-8 ovarian = system: OVCAR-8 ovarian
HCT-116 colon = system: HCT-116 colon
MOLT-4 leukemia = system: MOLT-4 leukemia
BT-549 breast = system: BT-549 breast
SW-620 colon = system: SW-620 colon
HL-60(TB) leukemia = system: HL-60(TB) leukemia
SF-268 CNS = system: SF-268 CNS
DU-145 prostate = system: DU-145 prostate
MDA-MB-231 breast = system: MDA-MB-231 breast
T-47D breast = system: T-47D breast
TK-10 renal = system: TK-10 renal
MCF7 breast = system: MCF7 breast
U251 CNS = system: U251 CNS
HOP-62 NSCLC = system: HOP-62 NSCLC

NC(=O)c1cc(I)ccc1NC(=O)/C=C/c1ccccc1Cl
GI50 (NCI-H23 lung): 1070 nM | TGI (NCI-H23 lung): 19600 nM | GI50 (OVCAR-4 ovarian): 2260 nM | TGI (OVCAR-4 ovarian): 67700 nM | GI50 (SN12C renal): 1320 nM | TGI (SN12C renal): 36700 nM | GI50 (NCI-H460 lung): 413 nM | TGI (NCI-H460 lung): 4700 nM | GI50 (OVCAR-3 ovarian): 271 nM | TGI (OVCAR-3 ovarian): 638 nM | GI50 (SF-295 CNS): 592 nM | TGI (SF-295 CNS): 19000 nM | GI50 (HCT-15 colon): 657 nM | TGI (HCT-15 colon): > 68300 nM | GI50 (UACC-257 melanoma): 38700 nM | TGI (UACC-257 melanoma): > 100000 nM | GI50 (CAKI-1 renal): 405 nM | TGI (CAKI-1 renal): 3780 nM | GI50 (786-0 renal): 770 nM | TGI (786-0 renal): 20000 nM | GI50 (RPMI-8226 leukemia): 504 nM | TGI (RPMI-8226 leukemia): 4660 nM | GI50 (HT29 colon): 362 nM | TGI (HT29 colon): 14500 nM | GI50 (SR leukemia): 260 nM | TGI (SR leukemia): 952 nM | GI50 (ACHN renal): 2440 nM | TGI (ACHN renal): > 73600 nM | GI50 (SNB-75 CNS): 995 nM | TGI (SNB-75 CNS): 25300 nM | GI50 (UO-31 renal): 1790 nM | TGI (UO-31 renal): 31800 nM | GI50 (OVCAR-5 ovarian): 3800 nM | TGI (OVCAR-5 ovarian): 37200 nM | GI50 (K-562 leukemia): 313 nM | TGI (K-562 leukemia): 3430 nM | GI50 (HCC-2998 colon): 969 nM | TGI (HCC-2998 colon): 5610 nM | GI50 (KM12 colon): 442 nM | TGI (KM12 colon): 4900 nM | GI50 (COLO 205 colon): 651 nM | TGI (COLO 205 colon): 5700 nM | GI50 (PC-3 prostate): 572 nM | TGI (PC-3 prostate): > 35400 nM | GI50 (MDA-MB-435): 204 nM | TGI (MDA-MB-435): 578 nM | GI50 (EKVX NSCLC): 1330 nM | TGI (EKVX NSCLC): > 69000 nM | GI50 (HOP-92 NSCLC): 7220 nM | TGI (HOP-92 NSCLC): 36400 nM | GI50 (M14 melanoma): 621 nM | TGI (M14 melanoma): 24800 nM | GI50 (SNB-19 CNS): 869 nM | TGI (SNB-19 CNS): > 47200 nM | GI50 (A549 NSCLC): 1180 nM | TGI (A549 NSCLC): 25200 nM | GI50 (RXF 393 renal): 375 nM | TGI (RXF 393 renal): 2180 nM | GI50 (SK-OV-3 ovarian): 529 nM | TGI (SK-OV-3 ovarian): 14900 nM | GI50 (SK-MEL-2 melanoma): 628 nM | TGI (SK-MEL-2 melanoma): 30100 nM | GI50 (MALME-3M melanoma): 211 nM | TGI (MALME-3M melanoma): 17600 nM | GI50 (NCI-H522 lung): 334 nM | TGI (NCI-H522 lung): 1640 nM | GI50 (SF-539 CNS): 410 nM | TGI (SF-539 CNS): 2830 nM | GI50 (SK-MEL-28 melanoma): 374 nM | TGI (SK-MEL-28 melanoma): 21800 nM | GI50 (NCI/ADR-RES ovarian): 506 nM | TGI (NCI/ADR-RES ovarian): 4650 nM | GI50 (SK-MEL-5 melanoma): 366 nM | TGI (SK-MEL-5 melanoma): 13000 nM | GI50 (IGROV1 ovarian): 352 nM | TGI (IGROV1 ovarian): 16900 nM | GI50 (A498 renal): 483 nM | TGI (A498 renal): 8010 nM | GI50 (NCI-H226 lung): 1610 nM | TGI (NCI-H226 lung): > 60600 nM | GI50 (UACC-62 melanoma): 312 nM | TGI (UACC-62 melanoma): 48700 nM | GI50 (HS 578T breast): 340 nM | TGI (HS 578T breast): 2190 nM | GI50 (LOX IMVI melanoma): 1820 nM | TGI (LOX IMVI melanoma): 98700 nM | GI50 (CCRF-CEM leukemia): 363 nM | GI50 (OVCAR-8 ovarian): 3000 nM | TGI (OVCAR-8 ovarian): > 38800 nM | GI50 (HCT-116 colon): 465 nM | TGI (HCT-116 colon): 11900 nM | GI50 (MOLT-4 leukemia): 765 nM | GI50 (BT-549 breast): 816 nM | TGI (BT-549 breast): 94700 nM | GI50 (SW-620 colon): 462 nM | TGI (SW-620 colon): > 39600 nM | GI50 (HL-60(TB) leukemia): 158 nM | TGI (HL-60(TB) leukemia): 631 nM | GI50 (SF-268 CNS): 640 nM | TGI (SF-268 CNS): 31000 nM | GI50 (DU-145 prostate): 837 nM | TGI (DU-145 prostate): 5640 nM | GI50 (MDA-MB-231 breast): 1630 nM | TGI (MDA-MB-231 breast): 31900 nM | GI50 (T-47D breast): 3130 nM | TGI (T-47D breast): > 90800 nM | GI50 (TK-10 renal): 2480 nM | GI50 (MCF7 breast): 333 nM | TGI (MCF7 breast): 25700 nM | GI50 (U251 CNS): 578 nM | TGI (U251 CNS): 19500 nM | GI50 (HOP-62 NSCLC): 4900 nM | TGI (HOP-62 NSCLC): 33500 nM
